The values below come from ChEMBL document CHEMBL4823311, “Optimization of Naphthyridones into Selective TATA-Binding Protein Associated Factor 1 (TAF1) Bromodomain Inhibitors” (ACS Med Chem Lett, 2021).

For the test, the target named is T1, Peregrin (Homo sapiens, UniProt P55201).
T1 sequence (P55201 whole entry): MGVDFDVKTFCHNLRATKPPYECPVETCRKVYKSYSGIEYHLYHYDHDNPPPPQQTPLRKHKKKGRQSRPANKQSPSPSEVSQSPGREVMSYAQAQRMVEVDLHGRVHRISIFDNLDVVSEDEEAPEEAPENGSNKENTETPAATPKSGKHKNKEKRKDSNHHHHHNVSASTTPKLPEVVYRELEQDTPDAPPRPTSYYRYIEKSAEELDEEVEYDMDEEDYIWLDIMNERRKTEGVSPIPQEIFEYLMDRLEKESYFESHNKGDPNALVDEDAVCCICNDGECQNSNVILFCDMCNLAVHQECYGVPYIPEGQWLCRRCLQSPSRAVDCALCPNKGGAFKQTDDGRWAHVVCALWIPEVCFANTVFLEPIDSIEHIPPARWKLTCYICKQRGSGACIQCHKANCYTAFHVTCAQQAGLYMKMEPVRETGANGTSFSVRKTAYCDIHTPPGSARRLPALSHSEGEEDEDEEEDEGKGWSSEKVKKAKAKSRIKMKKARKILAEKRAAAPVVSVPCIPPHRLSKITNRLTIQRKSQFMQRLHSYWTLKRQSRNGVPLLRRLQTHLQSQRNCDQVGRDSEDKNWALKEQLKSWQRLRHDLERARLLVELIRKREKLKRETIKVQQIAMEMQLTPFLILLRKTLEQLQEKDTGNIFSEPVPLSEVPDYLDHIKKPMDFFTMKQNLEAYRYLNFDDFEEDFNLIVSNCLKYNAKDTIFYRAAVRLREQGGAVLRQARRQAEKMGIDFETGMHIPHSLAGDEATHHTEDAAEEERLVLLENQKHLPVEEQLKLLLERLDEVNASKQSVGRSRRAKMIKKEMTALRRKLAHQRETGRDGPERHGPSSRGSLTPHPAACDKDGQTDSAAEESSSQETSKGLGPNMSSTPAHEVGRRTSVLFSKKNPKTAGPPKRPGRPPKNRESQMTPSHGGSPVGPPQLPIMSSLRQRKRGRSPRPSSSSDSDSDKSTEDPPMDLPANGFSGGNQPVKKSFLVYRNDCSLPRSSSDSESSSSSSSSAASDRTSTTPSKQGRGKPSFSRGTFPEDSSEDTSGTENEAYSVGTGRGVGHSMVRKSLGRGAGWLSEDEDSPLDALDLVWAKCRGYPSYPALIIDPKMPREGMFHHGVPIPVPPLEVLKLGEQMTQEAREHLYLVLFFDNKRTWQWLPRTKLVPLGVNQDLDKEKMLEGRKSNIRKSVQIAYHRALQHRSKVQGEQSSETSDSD
Put plainly: Inhibition of human partial length BRPF1 (E627 to G740 residues) expressed in bacterial expression system by BROMOscan assay.

For the molecule `Cc1cc2c(C3=CCOCC3)cnc(NC3CCN(C(=O)C(F)(F)CN)CC3)c2[nH]c1=O`, the affinity, expressed as Ki, was 5.01 µM.

As usually defined, the Ki is a dissociation constant, usually derived from enzyme kinetics or from competition with a known ligand. Low values mean tighter binding, high ones weaker binding.
